According to ChEMBL document CHEMBL4411339, “Design, synthesis and antimycobacterial activity of less lipophilic Q203 derivatives containing alkaline fused ring moieties” (Bioorg Med Chem, 2019):
Values after ≈ are worked out from the molar mass of the structure shown.

Columns and labels:
[1] = tested on: Mycobacterium tuberculosis; experiment: Antimycobacterial activity against Mycobacterium tuberculosis H37Rv ATCC 27294 after 7 days by microplate alamar blue assay; format: functional; details: H37Rv ATCC 27294, 168 h
[2] = Cmax in specific pathogen free ICR mouse at 25 mg/kg, po administered as single dose by HPLC analysis; format: ADME, organism-based; design: dose 25 mg/kg, route oral; details: in vivo
[3] = Tmax in specific pathogen free ICR mouse at 25 mg/kg, po administered as single dose by HPLC analysis; format: ADME, organism-based; details: in vivo
[4] = Acute toxicity in specific pathogen free ICR mouse at 500 mg/kg, po administered as single dose measured up to 7 days; format: organism-based; details: in vivo, 168 h
[5] = Cytotoxicity against African green monkey Vero cells assessed as reduction in cell viability after 72 hrs by MTT assay; format: cell-based; details: chlorocebus sabaeus
[6] = AUC (0 to infinity) in specific pathogen free ICR mouse at 25 mg/kg, po administered as single dose by HPLC analysis; format: ADME, organism-based; design: dose 25 mg/kg, time infinity, route oral; details: in vivo
[7] = Elimination half life in specific pathogen free ICR mouse at 25 mg/kg, po administered as single dose by HPLC analysis; format: ADME, organism-based; details: in vivo, read-out: beta t1/2 (converted)
hERG (KCNH2) = hERG (KCNH2) (Homo sapiens, UniProt Q12809); experiment: Inhibition of human ERG at 10 uM relative to control
Chain of hERG (KCNH2) (Q12809 whole entry): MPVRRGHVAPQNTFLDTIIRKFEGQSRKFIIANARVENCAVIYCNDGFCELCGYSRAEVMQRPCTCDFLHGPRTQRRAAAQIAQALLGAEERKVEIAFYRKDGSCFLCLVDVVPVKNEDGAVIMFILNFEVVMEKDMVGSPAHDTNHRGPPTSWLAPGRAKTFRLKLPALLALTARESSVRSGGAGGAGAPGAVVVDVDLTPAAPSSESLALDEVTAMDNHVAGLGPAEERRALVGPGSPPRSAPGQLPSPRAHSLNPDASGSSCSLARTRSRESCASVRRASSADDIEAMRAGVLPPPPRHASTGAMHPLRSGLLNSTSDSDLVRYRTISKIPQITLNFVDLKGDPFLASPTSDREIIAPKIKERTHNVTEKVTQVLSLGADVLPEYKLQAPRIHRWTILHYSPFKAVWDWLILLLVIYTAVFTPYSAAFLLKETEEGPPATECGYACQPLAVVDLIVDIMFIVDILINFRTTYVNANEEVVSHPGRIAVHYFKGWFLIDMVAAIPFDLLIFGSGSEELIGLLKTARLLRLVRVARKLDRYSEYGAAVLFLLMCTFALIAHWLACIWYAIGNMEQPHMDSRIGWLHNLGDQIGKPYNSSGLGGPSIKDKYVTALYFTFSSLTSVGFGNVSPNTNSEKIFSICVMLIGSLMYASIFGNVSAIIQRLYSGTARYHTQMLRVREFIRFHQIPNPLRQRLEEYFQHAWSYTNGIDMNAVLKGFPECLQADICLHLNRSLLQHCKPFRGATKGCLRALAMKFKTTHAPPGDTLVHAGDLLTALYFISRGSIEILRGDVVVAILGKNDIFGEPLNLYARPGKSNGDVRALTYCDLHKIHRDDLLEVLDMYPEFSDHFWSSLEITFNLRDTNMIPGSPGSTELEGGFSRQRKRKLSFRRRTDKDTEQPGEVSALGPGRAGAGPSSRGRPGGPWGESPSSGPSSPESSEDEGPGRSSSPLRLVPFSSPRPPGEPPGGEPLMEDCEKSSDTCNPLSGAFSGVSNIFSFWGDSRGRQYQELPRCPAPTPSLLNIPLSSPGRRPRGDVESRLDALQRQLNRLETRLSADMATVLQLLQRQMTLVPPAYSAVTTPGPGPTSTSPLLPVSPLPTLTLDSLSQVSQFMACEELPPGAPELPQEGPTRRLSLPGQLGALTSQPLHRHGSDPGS

[8] = Aqueous solubility of the compound in pH 2 0.01M HCl incubated under stirred condition for 12 hrs by UV-HPLC analysis; format: physicochemical

Row | Structure (SMILES) | MIC [1] [µM] | Cmax [2] [ng/mL] | Tmax [3] [h] | Activity [4] | CC50 at 72 h [5] [µg/mL] | AUC(0-inf) [6] [ng·h/mL] | half-life [7] [h] | inhibition at 10 µM (hERG (KCNH2)) [%] | solubility at 12 h [8] [µg/mL]
1 | CCc1nc2cc(Cl)ccn2c1C(=O)NCc1ccc2c(c1)CCN(Cc1ccc(F)cc1)C2 | 0.19 (≈ 0.0906 µg/mL) |  |  |  |  |  |  |  | 
2 | CCc1nc2ccc(Cl)cn2c1C(=O)NCc1ccc2c(c1)CCN(Cc1ccc(C(F)(F)F)cn1)C2 | 0.053 (≈ 0.028 µg/mL) | 8060 | 0.583 | Non-Toxic | > 64 | 25600 | 3.2 | 25 | 
3 | CCc1nc2ccc(Cl)cn2c1C(=O)NCc1ccc2c(c1)CCN(Cc1cc(F)cc(F)c1)C2 | < 0.035 |  |  |  | 14 (≈ 28.3 µM) |  |  |  | 
4 | CCc1nc2ccc(Cl)cn2c1C(=O)NCc1ccc2c(c1)CCN(Cc1ccc(F)cc1)C2 | < 0.035 |  |  |  | > 64 |  |  | 60 | 
5 | CCc1nc2ccc(Cl)cn2c1C(=O)NCc1ccc2c(c1)CCN(CCc1ccc(C(F)(F)F)cn1)C2 | < 0.035 | 22100 | 0.25 | Non-Toxic | 48 (≈ 88.6 µM) | 54900 | 5.39 | 13 | 2100 (≈ 3870 µM)
6 | CCc1nc2cc(Cl)ccn2c1C(=O)NCc1ccc2c(c1)CCN(Cc1ccc(C(F)(F)F)cc1)C2 | 0.91 (≈ 0.48 µg/mL) |  |  |  |  |  |  |  | 
7 | CCc1nc2cc(Cl)ccn2c1C(=O)NCc1ccc2c(c1)CCN(Cc1ccc(C(C)(C)C)cc1)C2 | 0.12 (≈ 0.0618 µg/mL) |  |  |  | 14 (≈ 27.2 µM) |  |  |  | 
8 | CCc1nc2ccc(Cl)cn2c1C(=O)NCc1ccc2c(c1)CCN(Cc1ccc(C(F)(F)F)cc1)C2 | 0.13 (≈ 0.0685 µg/mL) | 3000 | 0.25 | Non-Toxic | > 64 | 7800 | 4.98 | 50 | 
9 | CCc1nc2cc(Cl)ccn2c1C(=O)NCc1ccc2c(c1)CCN(Cc1cc(F)cc(F)c1)C2 | < 0.035 | 5380 | 0.667 | Non-Toxic | 48 (≈ 97 µM) | 24100 | 9.06 | 48 | 
10 | CCc1nc2cc(Cl)ccn2c1C(=O)NCc1ccc2c(c1)CCN(Cc1ccc(OC)cc1)C2 | < 0.035 |  |  |  | 32 (≈ 65.4 µM) |  |  | 64 | 
11 | CCc1nc2ccc(Cl)cn2c1C(=O)NCc1ccc2c(c1)CCN(Cc1ccc(Br)cc1)C2 | < 0.035 |  |  |  | 30 (≈ 55.8 µM) |  |  |  | 
12 | CCc1nc2ccc(Cl)cn2c1C(=O)NCc1ccc2c(c1)CN(C(C)c1ccc(OC(F)(F)F)cc1)C2 (stereo not given) | < 0.035 | 3990 | 0.333 | Non-Toxic | > 64 | 7610 | 9.08 | 50 | 
13 | CCc1nc2ccc(Cl)cn2c1C(=O)NCc1ccc2c(c1)CCN(Cc1ccc(C(C)(C)C)cc1)C2 | < 0.035 | 1080 | 0.5 | Non-Toxic | 37 (≈ 71.8 µM) | 4210 | 9.35 | 31 | 
14 | CCc1nc2ccc(Cl)cn2c1C(=O)NCc1ccc2c(c1)CCN(Cc1ccc([N+](=O)[O-])o1)C2 | 0.25 (≈ 0.123 µg/mL) |  |  |  |  |  |  |  | 
15 | CCc1nc2ccc(Cl)cn2c1C(=O)NCc1ccc2c(c1)CCN(Cc1ccc(C)cc1)C2 | < 0.035 |  |  |  | 51 (≈ 108 µM) |  |  | 54 | 
16 | CCc1nc2cc(Cl)ccn2c1C(=O)NCc1ccc2c(c1)CCN(Cc1ccc(C)cc1)C2 | 0.27 (≈ 0.128 µg/mL) |  |  |  |  |  |  |  | 
17 | CCc1nc2ccc(Cl)cn2c1C(=O)NCc1ccc2c(c1)CCN(Cc1ccc(C(F)(F)F)nc1)C2 | 0.097 (≈ 0.0512 µg/mL) |  |  |  | 7 (≈ 13.3 µM) |  |  |  | 
18 | CCc1nc2cc(Cl)ccn2c1C(=O)NCc1ccc2c(c1)CCN(CCc1ccc(C(F)(F)F)nc1)C2 | 0.19 (≈ 0.103 µg/mL) |  |  |  |  |  |  |  | 
19 | CCc1nc2ccc(Cl)cn2c1C(=O)NCc1ccc2c(c1)CN(Cc1ccc(OC(F)(F)F)cc1)C2 | 0.051 (≈ 0.027 µg/mL) | 1310 | 0.417 | Non-Toxic | > 64 | 3600 | 5.13 | 50 | 
20 | CCc1nc2ccc(Cl)cn2c1C(=O)NCc1ccc2c(c1)CCN(Cc1ccc(OC)cc1)C2 | < 0.035 |  |  |  | 2 (≈ 4.09 µM) |  |  |  | 
21 | CCc1nc2cc(Cl)ccn2c1C(=O)NCc1ccc2c(c1)CCN(CCc1ccc(C(F)(F)F)cn1)C2 | < 0.035 |  |  |  | 25 (≈ 46.1 µM) |  |  |  | 
22 | CCc1nc2ccc(Cl)cn2c1C(=O)NCc1ccc2c(c1)CCN(CCc1ccc(C(F)(F)F)nc1)C2 | 0.047 (≈ 0.0255 µg/mL) | 1630 | 0.25 | Non-Toxic | > 64 | 1480 | 1.79 | 44 | 
23 | CCc1nc2cc(Cl)ccn2c1C(=O)NCc1ccc2c(c1)CCN(Cc1ccc(Br)cc1)C2 | 0.31 (≈ 0.167 µg/mL) |  |  |  |  |  |  |  | 
24 | CCc1nc2cc(Cl)ccn2c1C(=O)NCc1ccc2c(c1)CCN(Cc1ccc([N+](=O)[O-])o1)C2 | < 0.035 |  |  |  | > 64 |  |  | 71 | 
25 | NNC(=O)c1ccncc1 [ISONIAZID] | 0.27 (≈ 0.037 µg/mL) |  |  |  |  |  |  |  | 
26 | O=c1nc(N2CCN(CC3CCCCC3)CC2)sc2c([N+](=O)[O-])cc(C(F)(F)F)cc12 [MACOZINONE] | < 0.035 |  |  |  | 31 (≈ 67.9 µM) | 1600 |  | 41 | 1130 (≈ 2480 µM)
27 | CO[C@H]1/C=C/O[C@@]2(C)Oc3c(C)c(O)c4c(O)c(c(/C=N/N5CCN(C)CC5)c(O)c4c3C2=O)NC(=O)/C(C)=C\C=C\[C@H](C)[C@H](O)[C@@H](C)[C@@H](O)[C@@H](C)[C@H](OC(C)=O)[C@@H]1C [RIFAMPIN] | 0.12 (≈ 0.0988 µg/mL) |  |  |  |  |  |  |  | 
28 | CCc1nc2ccc(Cl)cn2c1C(=O)NCc1ccc(N2CCC(c3ccc(OC(F)(F)F)cc3)CC2)cc1 [TELACEBEC] | < 0.035 | 3780 | 2.67 |  | > 64 | 46600 | 18.7 | 50 | 79 (≈ 142 µM)
